Measurements reported in ChEMBL document CHEMBL3885861, “Open TG-GATES”.

Organism: Rattus norvegicus
Experiment: Open TG-GATES - Regimen: Single
Assay type: toxicity, organism-based, Sprague-Dawley
Set-up: regimen Single, gender Male, age 6 weeks
Settings: in vivo, po, 30 mg/kg, route gavage, dose level High; for APTT / Bas / Eos / Fbg / Hb / Ht / Lym / MCH / MCHC / MCV / Mono / Neu / PT / Plat / RBC / Ret / WBC: tissue Blood; for KIDNEY_L / KIDNEY_R / KIDNEY_TOTAL: tissue Kidney; for LIVER: tissue Liver; for A/G / ALP / ALT / AST / BUN / CRE / Ca / Cl / DBIL / GLC / IP / K / LDH / Na / PL / RALB / TBIL / TC / TG / TP / gamma-GTP: tissue Plasma

Cn1cnc([N+](=O)[O-])c1Sc1ncnc2nc[nH]c12 [AZATHIOPRINE]
TERMINAL_BW (3 h): 191.2 g | APTT (3 h): 22.3 s | Bas (3 h): 0% | Eos (3 h): 1% | Fbg (3 h): 297.8 mg/dL | Hb (3 h): 13.1 g/dL | Ht (3 h): 39.1% | Lym (3 h): 71.8% | MCH (3 h): 21.6 pg | MCHC (3 h): 33.5% | MCV (3 h): 64.6 fL | Mono (3 h): 1.8% | Neu (3 h): 24.6% | PT (3 h): 15.5 s | Plat (3 h): 118.4 x10_4/uL | RBC (3 h): 605.8 x10_4/ul | Ret (3 h): 9.2% | WBC (3 h): 56 x10_2/uL | KIDNEY_L (3 h): 0.9 g | KIDNEY_R (3 h): 0.9 g | KIDNEY_TOTAL (3 h): 1.7 g | LIVER (3 h): 8.5 g | A/G (3 h): 1.2 | ALP (3 h): 1649.8 IU/L | ALT (3 h): 41.6 IU/L | AST (3 h): 73.2 IU/L | BUN (3 h): 10.6 mg/dL | CRE (3 h): 0.1 mg/dL | Ca (3 h): 10.3 mg/dL | Cl (3 h): 104.8 meq/L | DBIL (3 h): 0.004 mg/dL | GLC (3 h): 182.8 mg/dL | IP (3 h): 9 mg/dL | K (3 h): 4 meq/L | LDH (3 h): 171.8 IU/L | Na (3 h): 143.2 meq/L | PL (3 h): 138.4 mg/dL | RALB (3 h): 3 g/dL | TBIL (3 h): 0.01 mg/dL | TC (3 h): 80.4 mg/dL | TG (3 h): 47.6 mg/dL | TP (3 h): 5.4 g/dL | gamma-GTP (3 h): 1 IU/L | TERMINAL_BW (6 h): 192.3 g | APTT (6 h): 21 s | Bas (6 h): 0% | Eos (6 h): 0.8% | Fbg (6 h): 311.8 mg/dL | Hb (6 h): 13.2 g/dL | Ht (6 h): 39.6% | Lym (6 h): 71.4% | MCH (6 h): 21.5 pg | MCHC (6 h): 33.3% | MCV (6 h): 64.8 fL | Mono (6 h): 2.2% | Neu (6 h): 25% | PT (6 h): 15.5 s | Plat (6 h): 120.3 x10_4/uL | RBC (6 h): 612.2 x10_4/ul | Ret (6 h): 9% | WBC (6 h): 54.6 x10_2/uL | KIDNEY_L (6 h): 0.9 g | KIDNEY_R (6 h): 0.9 g | KIDNEY_TOTAL (6 h): 1.8 g | LIVER (6 h): 7.9 g | A/G (6 h): 1.1 | ALP (6 h): 1635.4 IU/L | ALT (6 h): 36.4 IU/L | AST (6 h): 69.8 IU/L | BUN (6 h): 9.8 mg/dL | CRE (6 h): 0.2 mg/dL | Ca (6 h): 10.6 mg/dL | Cl (6 h): 104.8 meq/L | DBIL (6 h): 0.002 mg/dL | GLC (6 h): 187.4 mg/dL | IP (6 h): 9.1 mg/dL | K (6 h): 4.4 meq/L | LDH (6 h): 221 IU/L | Na (6 h): 141.2 meq/L | PL (6 h): 127.2 mg/dL | RALB (6 h): 2.9 g/dL | TBIL (6 h): 0.008 mg/dL | TC (6 h): 73.4 mg/dL | TG (6 h): 44.6 mg/dL | TP (6 h): 5.5 g/dL | gamma-GTP (6 h): 1 IU/L | TERMINAL_BW (9 h): 184.1 g | APTT (9 h): 22 s | Bas (9 h): 0% | Eos (9 h): 0.8% | Fbg (9 h): 328.4 mg/dL | Hb (9 h): 12.7 g/dL | Ht (9 h): 38.7% | Lym (9 h): 74.4% | MCH (9 h): 21.3 pg | MCHC (9 h): 32.9% | MCV (9 h): 64.9 fL | Mono (9 h): 2.8% | Neu (9 h): 20.6% | PT (9 h): 15.5 s | Plat (9 h): 102.9 x10_4/uL | RBC (9 h): 598 x10_4/ul | Ret (9 h): 9.2% | WBC (9 h): 79 x10_2/uL | KIDNEY_L (9 h): 0.8 g | KIDNEY_R (9 h): 0.9 g | KIDNEY_TOTAL (9 h): 1.7 g | LIVER (9 h): 7.5 g | A/G (9 h): 1.2 | ALP (9 h): 1634.6 IU/L | ALT (9 h): 35.4 IU/L | AST (9 h): 77 IU/L | BUN (9 h): 11.4 mg/dL | CRE (9 h): 0.1 mg/dL | Ca (9 h): 10.5 mg/dL | Cl (9 h): 106 meq/L | DBIL (9 h): 0.002 mg/dL | GLC (9 h): 190 mg/dL | IP (9 h): 9.4 mg/dL | K (9 h): 4.5 meq/L | LDH (9 h): 231.8 IU/L | Na (9 h): 140.8 meq/L | PL (9 h): 140.2 mg/dL | RALB (9 h): 2.9 g/dL | TBIL (9 h): 0.01 mg/dL | TC (9 h): 85.8 mg/dL | TG (9 h): 37.2 mg/dL | TP (9 h): 5.4 g/dL | gamma-GTP (9 h): 1.2 IU/L | TERMINAL_BW (24 h): 199.8 g | APTT (24 h): 19.8 s | Bas (24 h): 0% | Eos (24 h): 0.8% | Fbg (24 h): 345.2 mg/dL | Hb (24 h): 13 g/dL | Ht (24 h): 38.7% | Lym (24 h): 86% | MCH (24 h): 21.7 pg | MCHC (24 h): 33.6% | MCV (24 h): 64.6 fL | Mono (24 h): 1.8% | Neu (24 h): 10.4% | PT (24 h): 15 s | Plat (24 h): 125.5 x10_4/uL | RBC (24 h): 599 x10_4/ul | Ret (24 h): 7.7% | WBC (24 h): 68.5 x10_2/uL | KIDNEY_L (24 h): 0.9 g | KIDNEY_R (24 h): 0.9 g | KIDNEY_TOTAL (24 h): 1.8 g | LIVER (24 h): 9.1 g | A/G (24 h): 1.2 | ALP (24 h): 1513.8 IU/L | ALT (24 h): 44.2 IU/L | AST (24 h): 73.6 IU/L | BUN (24 h): 15.4 mg/dL | CRE (24 h): 0.1 mg/dL | Ca (24 h): 11.1 mg/dL | Cl (24 h): 105.2 meq/L | DBIL (24 h): 0 mg/dL | GLC (24 h): 190.8 mg/dL | IP (24 h): 7.6 mg/dL | K (24 h): 4.2 meq/L | LDH (24 h): 210.4 IU/L | Na (24 h): 142 meq/L | PL (24 h): 161.2 mg/dL | RALB (24 h): 3.1 g/dL | TBIL (24 h): 0.014 mg/dL | TC (24 h): 102.6 mg/dL | TG (24 h): 39.4 mg/dL | TP (24 h): 5.7 g/dL | gamma-GTP (24 h): 1.4 IU/L
